Assay results from patent US10023839B2, “Anti-tumour vaccine derived from normal cells” (Cytovac A/S, priority 2007, dated 2018).

System: cancer/testis antigens (MAGE-A1, -A3, -A4, -A6, -A10, -A12, NY-ESO-1, GAGE-3-7, BORIS) in proliferating lymphocytes
Test: RT-PCR analysis of cancer/testis antigen expression in 5-Aza-CdR-treated proliferating lymphocytes

SMILES: Nc1ncn([C@H]2C[C@H](O)[C@@H](CO)O2)c(=O)n1 [Culture 5-Aza-CdR, 5-Aza-2′-deoxycytidine]
- induction of CTA expression (RT-PCR) (10 μM 5-aza-2′-deoxycytidine, 150 IU/ml IL-2, 3 days, lymphocytes expanded with autologous mature dendritic cells): all the investigated antigens are present in the induced lymphocytes
- CTA expression, cultures from log phase of growth (day 8) versus plateau (day 10) (10 μM 5-aza-2′-deoxycytidine, 3 days): higher expression in cultures taken from log phase of growth
- most easily inducible CTA (preliminary experiments on kinetics and concentration dependence (not shown)): MAGE-A1, MAGE-A4 and MAGE-A12
